Test results from US20230181536A1, “ANTICANCER COMBINATION THERAPY WITH N-(1-ACRYLOYL-AZETIDIN-3-YL)-2-((1H-INDAZOL-3-YL)AMINO)METHYL)-1H-IMIDAZOLE-5-CARBOXAMIDE INHIBITOR OF KRAS-G12C” (TAIHO PHARMACEUTICAL CO., LTD., priority 2020, published 2023).

Target: T1, KRAS G12C (Homo sapiens, UniProt P01116, G12C)
T1 construct: KRAS G12C (amino acid region: 1-169)
Assay: Inhibitory activity on the KRAS G12C nucleotide (GDP-GTP) exchange reaction
Format: biochemical
Conditions: Bodipy FL GDP-bound KRAS G12C 25 nM; preincubation at 25° C. for 4 hours; SOS1 100 nM, GppNHp 1 μM, reaction for 30 minutes
How it was run: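 Bodipy FL-GDP-loaded KRAS G12C (aa 1-169, 25 nM) preincubated with compound 4 h at 25 °C in pH 7.5 Tris buffer, 5% DMSO; exchange started with SOS1 (aa 564-1049, 100 nM) and 1 μM GppNHp for 30 min. Fluorescence change (ex 485/em 520 nm) normalized to DMSO and no-GppNHp controls; IC50 calculated.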

T1 sequence (P01116 1-169 isoform P01116-2 G12C): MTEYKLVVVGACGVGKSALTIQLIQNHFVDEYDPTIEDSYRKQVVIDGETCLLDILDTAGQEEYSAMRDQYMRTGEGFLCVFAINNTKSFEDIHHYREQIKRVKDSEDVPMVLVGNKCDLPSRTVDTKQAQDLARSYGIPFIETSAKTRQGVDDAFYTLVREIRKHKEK

Row | Compound | IC50 [nM]
1 | COC/C=C/C(=O)N1CC(NC(=O)c2c(C)nc(CNc3n[nH]c4cc(Cl)c(C(C)(C)C)cc34)n2C(C)C)C1 [Example 85, (E)-2-(((5-(tert-butyl)-6-chloro-1H-indazol-3-yl)amino)methyl)-1-isopropyl-N-(1-(4-methoxybut-2-enoyl)azetidin-3-yl)-4-methyl-1H-imidazole-5-carboxamide] | 196
2 | C=CS(=O)(=O)N1CC(NC(=O)c2c(C)nc(CNc3n[nH]c4cc(Cl)c(C(C)(C)C)cc34)n2C(C)C)C1 [Example 86, 2-(((5-(tert-butyl)-6-chloro-1H-indazol-3-yl)amino)methyl)-1-isopropyl-4-methyl-N-(1-(vinylsulfonyl)azetidin-3-yl)-1H-imidazole-5-carboxamide] | 58
3 | C=CC(=O)N1CC(NC(=O)c2c(Cl)nc(CNc3n[nH]c4cc(Cl)c(C(C)(C)C)cc34)n2CCCC)C1 [Example 87, N-(1-acryloylazetidin-3-yl)-1-butyl-2-(((5-(tert-butyl)-6-chloro-1H-indazol-3-yl)amino)methyl)-4-chloro-1H-imidazole-5-carboxamide] | 14
4 | C=CC(=O)N1CC(NC(=O)c2cnc(CNc3n[nH]c4cc(Cl)c(C(C)(C)C)cc34)n2Cc2cc(OC)cc(OC)c2)C1 [Example 88, N-(1-acryloylazetidin-3-yl)-2-(((5-(tert-butyl)-6-chloro-1H-indazol-3-yl)amino)methyl)-1-(3,5-dimethoxybenzyl)-1H-imidazole-5-carboxamide] | 158
5 | C=CC(=O)N1CC(NC(=O)c2c(Cl)nc(CNc3n[nH]c4cc(Cl)c(C(C)(C)C)cc34)n2CC(C)C)C1 [Example 89, N-(1-acryloylazetidin-3-yl)-2-(((5-(tert-butyl)-6-chloro-1H-indazol-3-yl)amino)methyl)-4-chloro-1-isobutyl-1H-imidazole-5-carboxamide] | 7
6 | C=CC(=O)N1CC(NC(=O)c2c(Cl)nc(CNc3n[nH]c4cc(Cl)c(C(C)(C)C)cc34)n2CCOC)C1 [Example 90, N-(1-acryloylazetidin-3-yl)-2-(((5-(tert-butyl)-6-chloro-1H-indazol-3-yl)amino)methyl)-4-chloro-1-(2-methoxyethyl)-1H-imidazole-5-carboxamide] | 6
7 | C=CC(=O)N1CC(NC(=O)c2c(C(F)F)nc(CNc3n[nH]c4cc(Cl)c(C(C)(C)C)cc34)n2C2CCN(C)C2)C1 (stereo not shown) [Example 91, N-(1-acryloylazetidin-3-yl)-2-(((5-(tert-butyl)-6-chloro-1H-indazol-3-yl)amino)methyl)-4-(difluoromethyl)-1-(1-methylpyrrolidin-3-yl)-1H-imidazole-5-carboxamide] | 7
8 | C=CC(=O)N1CC(NC(=O)c2c(C(F)F)nc(CNc3n[nH]c4cc(Cl)c(C(C)(C)C)cc34)n2C2CCN(CC)C2)C1 (stereo not shown) [Example 92, N-(1-acryloylazetidin-3-yl)-2-(((5-(tert-butyl)-6-chloro-1H-indazol-3-yl)amino)methyl)-4-(difluoromethyl)-1-(1-ethylpyrrolidin-3-yl)-1H-imidazole-5-carboxamide] | 10
9 | C=CC(=O)N1CC(NC(=O)c2c(Cl)nc(CNc3n[nH]c4cc(Cl)c(C(C)(C)C)cc34)n2-c2ccccn2)C1 [Example 94, N-(1-acryloylazetidin-3-yl)-2-(((5-(tert-butyl)-6-chloro-1H-indazol-3-yl)amino)methyl)-4-chloro-1-(pyridin-2-yl)-1H-imidazole-5-carboxamide] | 118
10 | C=CC(=O)N1CC(NC(=O)c2c(C(F)F)nc(CNc3n[nH]c4cc(Cl)c(C(C)(C)C)cc34)n2CC2CCCN2C(C)C)C1 (stereo not shown) [Example 95, N-(1-acryloylazetidin-3-yl)-2-(((5-(tert-butyl)-6-chloro-1H-indazol-3-yl)amino)methyl)-4-(difluoromethyl)-1-((1-isopropylpyrrolidine-2-yl)methyl)-1H-imidazole-5-carboxamide] | 44
11 | C=CC(=O)N1CC(NC(=O)c2c(C(F)F)nc(CNc3n[nH]c4cc(Cl)c(C(C)(C)C)cc34)n2C2CCN(C(C)=O)C2)C1 (stereo not shown) [Example 96, 1-(1-Acetylpyrrolidin-3-yl)-N-(1-acryloylazetidin-3-yl)-2-(((5-(tert-butyl)-6-chloro-1H-indazol-3-yl)amino)methyl)-4-(difluoromethyl)-1H-imidazole-5-carboxamide] | 4
12 | C=CC(=O)N1CC(NC(=O)c2c(Cl)nc(CNc3n[nH]c4cc(Cl)c(C(C)(C)C)cc34)n2[C@H]2CCOC2)C1 [Example 97, (S)-N-(1-acryloylazetidin-3-yl)-2-(((5-(tert-butyl)-6-chloro-1H-indazol-3-yl)amino)methyl)-4-chloro-1-(tetrahydrofuran-3-yl)-1H-imidazole-5-carboxamide] | 4
13 | C=CC(=O)N1CC(NC(=O)c2c(Cl)nc(CNc3n[nH]c4cc(Cl)c(C(C)(C)C)cc34)n2C2CC=CC2)C1 [Example 98, N-(1-acryloylazetidin-3-yl)-2-(((5-(tert-butyl)-6-chloro-1H-indazol-3-yl)amino)methyl)-4-chloro-1-(cyclopent-3-en-1-yl)-1H-imidazole-5-carboxamide] | 7
14 | C=CC(=O)N1CC(NC(=O)c2c(Cl)nc(CNc3n[nH]c4cc(Cl)c(C(C)(C)C)cc34)n2[C@@H]2C[C@@H](O)[C@@H](O)C2)C1 [Example 99] | 7
15 | C=CC(=O)N1CC(NC(=O)c2c(Cl)nc(CNc3n[nH]c4cc(Cl)c(C(C)(C)C)cc34)n2CC(F)F)C1 [Example 100, N-(1-acryloylazetidin-3-yl)-2-(((5-(tert-butyl)-6-chloro-1H-indazol-3-yl)amino)methyl)-4-chloro-1-(2,2-difluoroethyl)-1H-imidazole-5-carboxamide] | 14
16 | C=CC(=O)N1CC(NC(=O)c2c(Cl)nc(CNc3n[nH]c4cc(Cl)c(C(C)(C)C)cc34)n2C2CCOCC2)C1 [Example 101, N-(1-acryloylazetidin-3-yl)-2-(((5-(tert-butyl)-6-chloro-1H-indazol-3-yl)amino)methyl)-4-chloro-1-(tetrahydro-2H-pyran-4-yl)-1H-imidazole-5-carboxamide] | 7
17 | C=CC(=O)N1CC(NC(=O)c2c(Cl)nc(CNc3n[nH]c4cc(Cl)c(C(C)(C)C)cc34)n2[C@@H]2CCOC2)C1 [Example 102, (R)-N-(1-acryloylazetidin-3-yl)-2-(((5-(tert-butyl)-6-chloro-1H-indazol-3-yl)amino)methyl)-4-chloro-1-(tetrahydrofuran-3-yl)-1H-imidazole-5-carboxamide] | 5
18 | C=CC(=O)N1CC(NC(=O)c2c(Cl)nc(CNc3n[nH]c4cc(Cl)c(C(C)(C)C)cc34)n2C2CCN(C)CC2)C1 [Example 103, N-(1-acryloylazetidin-3-yl)-2-(((5-(tert-butyl)-6-chloro-1H-indazol-3-yl)amino)methyl)-4-chloro-1-(1-methylpiperidin-4-yl)-1H-imidazole-5-carboxamide] | 5
19 | C=CC(=O)N1CC(NC(=O)c2c(Cl)nc(CNc3n[nH]c4cc(Cl)c(C(C)(C)C)cc34)n2C2CCCOC2)C1 (stereo not shown) [Example 104, N-(1-acryloylazetidin-3-yl)-2-(((5-(tert-butyl)-6-chloro-1H-indazol-3-yl)amino)methyl)-4-chloro-1-(tetrahydro-2H-pyran-3-yl)-1H-imidazole-5-carboxamide] | 9
20 | C=CC(=O)N1CC(NC(=O)c2c(Cl)nc(CNc3n[nH]c4cc(Cl)c(C(C)(C)C)cc34)n2C2CCCC2)C1 [Example 105, N-(1-acryloylazetidin-3-yl)-2-(((5-(tert-butyl)-6-chloro-1H-indazol-3-yl)amino)methyl)-4-chloro-1-cyclopentyl-1H-imidazole-5-carboxamide] | 8
21 | C=CC(=O)N1CC(NC(=O)c2c(Cl)nc(CNc3n[nH]c4cc(Cl)c(C(C)(C)C)cc34)n2C2CN(C(=O)OC(C)(C)C)C2)C1 [Example 106, Tert-butyl 3-(5-((1-acryloylazetidin-3-yl)carbamoyl)-2-(((5-(tert-butyl)-6-chloro-1H-indazol-3-yl)amino)methyl)-4-chloro-1H-imidazol-1-yl)azetidine-1-carboxylate] | 8
22 | C=CC(=O)N1CC(NC(=O)c2c(Cl)nc(CNc3n[nH]c4cc(Cl)c(C(C)(C)C)cc34)n2C2CN(C(C)C)C2)C1 [Example 107, N-(1-acryloylazetidin-3-yl)-2-(((5-(tert-butyl)-6-chloro-1H-indazol-3-yl)amino)methyl)-4-chloro-1-(1-isopropylazetidin-3-yl)-1H-imidazole-5-carboxamide] | 4
23 | C=CC(=O)N1CC(NC(=O)c2c(Cl)nc(CNc3n[nH]c4cc(Cl)c(C(C)(C)C)cc34)n2C2CN(C(C)=O)C2)C1 [Example 108, 1-(1-acetylazetidin-3-yl)-N-(1-acryloylazetidin-3-yl)-2-(((5-(tert-butyl)-6-chloro-1H-indazol-3-yl)amino)methyl)-4-chloro-1H-imidazole-5-carboxamide] | 9
24 | C=CC(=O)N1CC(NC(=O)c2c(Cl)nc(CNc3n[nH]c4cc(Cl)c(C(C)(C)C)cc34)n2C2CCCCC2)C1 [Example 109, N-(1-acryloylazetidin-3-yl)-2-(((5-(tert-butyl)-6-chloro-1H-indazol-3-yl)amino)methyl)-4-chloro-1-cyclohexyl-1H-imidazole-5-carboxamide] | 23
25 | C=CC(=O)N1CC(NC(=O)c2c(Cl)nc(CNc3n[nH]c4cc(Cl)c(C(C)(C)C)cc34)n2CC2CCCC2)C1 [Example 110, N-(1-acryloylazetidin-3-yl)-2-(((5-(tert-butyl)-6-chloro-1H-indazol-3-yl)amino)methyl)-4-chloro-1-(cyclopentylmethyl)-1H-imidazole-5-carboxamide] | 9
